Patent US12589104B2, “Thiosaccharides for use in treating coronavirus infection” (priority 2020, dated 2026)
Where a name gives a salt, the structure may show the parent alone.

Columns and labels:
[1] = tested on: VSV pseudotype bearing the SARS-2-S protein (VSV-S); format: cell-based, SARS-CoV-2
[2] = biological target: T1, RBD of SARS-2-S binding to ACE2 (Severe acute respiratory syndrome coronavirus 2, UniProt P0DTC2); set-up: species or system SARS-CoV-2
T1 construct: Recombinantly expressed RBD of SARS-2-S was first immobilized to a surface

SARS-2-S pseudovirus = format: cell-based, SARS-CoV-2
[3] = tested on: SARS-CoV-2, isolate USA-WA1/2020; format: cell-based
[4] = cited from earlier work
[5] = tested on: SARS CoV2 (isolate USA-WA1/2020); set-up: species or system Syrian hamsters (Mesocricetus auratus); details: hamster, in vivo
[6] = biological target: T2, SARS-CoV-2 RBD^original binding to ACE2 (Severe acute respiratory syndrome coronavirus 2, UniProt P0DTC2); details: for binding of RBD^original to ACE2 at one and two hours post exposure and wash: 5 mM drug for 1 hour, washed, ACE2 added after 60 or 120 minutes; for inhibition of binding of RBD^original to ACE2: RBD exposed to drug for 60 minutes, 0 to 20 mM
T2 construct: ACRO Biosystems); purchased ACRO Biosystems

[7] = format: physicochemical; details: 11 mg/mL in vehicle, Aerogen Solo vibrating mesh nebulizer

CC(=O)N[C@@H](CS)C(=O)O [NAC, N-acetyl-L-cysteine]
inhibition of VSV-S cellular entry [1]: inhibited VSV-S cellular entry
inhibition of VSV-S entry [1]: only 5 and 25 mM of NAC resulted in significant cell entry inhibition
inhibition of binding of ACE2 to SARS-2-S [2]: inhibited binding of ACE2 to SARS-2-S

NCCCNCCSP(=O)(O)O [amifostine, Amifostine]
pseudovirus cell entry after pretreatment of SARS-2-S pseudovirus with drug (SARS-2-S pseudovirus): did not inhibit viral cell entry

N[C@@H](CSCC(=O)O)C(=O)O [carbocysteine, Carbocysteine]
cytopathic effects in virus-infected cells, virus exposed to drug prior to infection [3]: significantly inhibited
pseudovirus cell entry after pretreatment of SARS-2-S pseudovirus with drug (SARS-2-S pseudovirus): did not inhibit viral cell entry

NCCS [Cysteamine]
cytopathic effects in virus-infected cells, virus exposed to drug prior to infection [3]: significantly inhibited
pKa (thiol group) [4]: 8.2
interleukin-6 levels in lung lavage [5]: lower than control
lung weights [5]: lower than in control groups
lymphocytes in BAL fluid [5]: decreases
neutrophils in BAL fluid [5]: decreases
total leukocyte counts in the bronchoalveolar lavage (BAL) fluid [5]: lower than control
binding of RBD^original to ACE2 at one and two hours post exposure and wash [6]: binding inhibition was retained for two hours after drug removal
inhibition of binding of RBD^original to ACE2 [6]: strong inhibitory effects

NCCCNCCS [WR-1065]
binding of RBD^original to ACE2 at one and two hours post exposure and wash [6]: binding inhibition was retained for two hours after drug removal
inhibition of binding of RBD^original to ACE2 [6]: strong inhibitory effects

O=S(=O)(O)CCS [MESNA, 2-Mercaptoethane sulfonate, sodium salt]
binding of RBD^original to ACE2 at one and two hours post exposure and wash [6]: binding inhibition was retained for two hours after drug removal
inhibition of binding of RBD^original to ACE2 [6]: strong inhibitory effects
antiviral efficacy in vitro compared to NAC (SARS-2-S pseudovirus): superior antiviral efficacy in vitro

OC1C(O)[C@H](O)C(CS)O[C@@H]1O[C@@H]1OC(CS)[C@@H](O)C(O)C1O (stereo partly drawn) [MUC-031, 6,6′-dithiotrehalose]
average mass median aerodynamic diameter (MMAD) of the exposure atmosphere [7]: 2.60 μm

OC1C(O)[C@H](O)C(CS)O[C@@H]1O[C@H]1OC(CS)[C@@H](O)C(O)C1O (stereo partly drawn) [MUC, 6,6′-dithiotrehalose]
effectiveness for inhibiting viral entry compared to NAC [1]: more effective than NAC
inhibition of VSV-S cellular entry [1]: inhibited VSV-S cellular entry
inhibition of VSV-S entry [1]: All three concentrations of MUC resulted in potent inhibition of VSV-S entry
inhibition of binding of ACE2 to SARS-2-S [2]: inhibited binding of ACE2 to SARS-2-S
persistence of binding inhibition after drug is washed out [2]: binding inhibition persists following drug contact
potency in inhibiting ACE2 binding compared to NAC [2]: stronger potency
